Consider 33 compounds from patent US12503444B2, “Compound containing benzene ring and application thereof” (WUHAN LL SCIENCE AND TECHNOLOGY DEVELOPMENT CO., LTD., priority 2019, dated 2025).

One may read the IC50 as the midpoint of a concentration-inhibition curve.

Some results are limits rather than exact numbers.

For the first assay, the target named is T1, hP2X4 (human purinergic P2X receptor subtype 4) (Homo sapiens, UniProt Q99571).
T1 sequence (Q99571 1-404 isoform Q99571-2): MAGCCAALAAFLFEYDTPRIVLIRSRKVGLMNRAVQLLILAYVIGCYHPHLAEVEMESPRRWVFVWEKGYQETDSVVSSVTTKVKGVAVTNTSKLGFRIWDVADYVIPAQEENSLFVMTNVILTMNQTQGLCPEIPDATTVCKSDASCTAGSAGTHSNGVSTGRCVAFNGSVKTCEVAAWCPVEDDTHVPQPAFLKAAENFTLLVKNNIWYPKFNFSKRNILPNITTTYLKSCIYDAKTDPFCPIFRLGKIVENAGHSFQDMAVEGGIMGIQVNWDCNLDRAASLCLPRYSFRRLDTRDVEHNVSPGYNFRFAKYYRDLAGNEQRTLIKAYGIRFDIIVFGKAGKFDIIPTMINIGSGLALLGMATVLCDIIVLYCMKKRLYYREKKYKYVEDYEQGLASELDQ
Put plainly: FLIPR assay of intracellular calcium increase induced by activation of hP2X4 expressed in HEK293 cells (agonist BZ-ATP 2.5 μM). As to conditions: HEK293 cells stably expressing hP2X4, FLIPR, class symbols, read-out: P2X4 IC50. It is filed as cell-based. On the procedure: The antagonist property of the compounds disclosed herein was determined using the FLIPR (fluorescence imaging plate reader) method, wherein the compounds are inhibitors for the intracellular calcium increase induced by activation of hP2X4 (human purinergic P2X receptor subtype 4, accession No. NM_001256796.2) expressed in HEK293 cells (human renal epithelial cell line, ATCC).
HEK293 cells stably expressing hP2X4 were cultured in DMEM high glucose medium containing 10% FBS (fetal bovine serum, Biosera, FB-1058/500), 1% penicillin-streptomycin (Gibco, 15140-122) and 1 mg/mL G418 (CABIOCHE, 345810) in a cell incubator (37° C., […]). Cells at 400,000 cells/mL were seeded into a 384-well plate (10,000 cells/well) 18-24 h prior to the FLIPR experiment and then incubated overnight in a cell incubator. On the day of the experiment, the medium was discarded and the cells were washed in an FLIPR buffer (0.3 mL of probenecid (Thermo, P36400), 0.6 mL of 1 M HEPES (Invitrogen, 15630080) and 29.1 mL of HBSS (Invitrogen, 14065056) per 30 mL of the buffer). Each well was added with 20 μL of 0.5× Calcium 6 fluorescent dye (Molecular Devices, R8190) and then the cells were subjected to dye-loading incubation at 37° C. for 1.5 h. Each well was added with 10 μL of respective test compound (dissolved in DMSO at a concentration of 10 mM and serially diluted with buffer) or vehicle and the mixture was equilibrated for 30 min at room temperature. The cell plate was then placed in the FLIPR for baseline fluorescence measurements (excitation at 485 nm and emission at 525-535 nm). An agonist (BZ-ATP (Sigma, B6396) at a final concentration of 2.5 μM) or a vehicle (ultrapure water) was then added at 10 μL/well, fluorescence values were measured for 2 min at 1-second intervals, and finally the output fluorescence counts were analyzed.
Turning to `NS(=O)(=O)c1cc(NC(=O)Cc2ccccc2Cl)cc2nn(C3COC3)cc12` [Compound 59, 2-(2-chlorophenyl)-N-(2-(oxetan-3-yl)-4-sulfamoyl-2H-indazol-6-yl)acetamide], the IC50 was in the range of 200 to 5000 nM.
On the same count and under the same terms, then `NS(=O)(=O)c1cc(NC(=O)Cc2ccccc2Cl)cc2[nH]ccc12` [Compound 56, 2-(2-chlorophenyl)-N-(4-sulfamoyl-1H-indol-6-yl)acetamide], with 10 to 50 nM; and `NS(=O)(=O)c1cc(NC(=O)Cc2ccccc2Cl)cc2nn(CC3CCCCC3)cc12` [Compound 32-A, 2-(2-chlorophenyl)-N-(2-(cyclohexylmethyl)-4-sulfamoyl-2H-indazol-6-yl)acetamide], with at most 10 nM.
On to `Cc1ccccc1CC(=O)Nc1cc([S@](C)(=N)=O)c2cn(Cc3ccc(F)cc3)nc2c1` [Compound 139A], for which the IC50 lay within 200 to 5000 nM.
Regarding `COCCOc1cccc(CC(=O)Nc2cc(S(N)(=O)=O)c3cn(C(F)F)nc3c2)c1` [Compound 116, N-(2-(difluoromethyl)-4-sulfamoyl-2H-indazol-6-yl)-2-(3-(2-methoxyethoxy)phenyl)acetamide], the IC50 was in the range of 200 to 5000 nM.
With `NS(=O)(=O)c1cc(NC(=O)CC2CCCCC2O)cc2nn(C(F)F)cc12` (stereo not drawn) [Compound 136, N-(2-(difluoromethyl)-4-sulfamoyl-2H-indazol-6-yl)-2-(2-hydroxycyclohexyl)acetamide], the IC50 lay within 200 to 5000 nM.
Still for that read-out and setting: to `CC(C)C(=O)n1cc2c(S(N)(=O)=O)cc(NC(=O)Cc3ccccc3Cl)cc2n1` [Compound 41, 2-(2-chlorophenyl)-N-(2-isobutyryl-4-sulfamoyl-2H-indazol-6-yl)acetamide] belongs 10 to 50 nM; to `COc1ccc(Cn2cc3c(S(N)(=O)=O)cc(NC(=O)Cc4ccccc4Cl)cc3n2)cc1F` [Compound 82], at most 10 nM.
Take `NS(=O)(=O)c1cc(NC(=O)Cc2ccccc2Cl)cc2nn(CCF)cc12` [Compound 11, 2-(2-chlorophenyl)-N-(2-(2-fluoroethyl)-4-sulfamoyl-2H-indazol-6-yl)acetamide]: the IC50 was at most 10 nM.
Still for that read-out and setting: then `C[S@@](=N)(=O)c1cc(NC(=O)Cc2ccccc2Cl)cc2nn(Cc3ccc(F)cc3)cc12` [Compound 138A, (R)-2-(2-chlorophenyl)-N-(2-(4-fluorophenylmethyl)-4-(S-methylsulfonimidoyl)-2H-indazol-6-yl)acetamide], with 200 to 5000 nM; and `NS(=O)(=O)c1cc(NC(=O)Cc2ccccc2Cl)cc2c1cnn2CCN1CCOCC1` [Compound 118A, 2-(2-chlorophenyl)-N-(1-(2-morpholinoethyl)-4-sulfamoyl-1H-indazol-6-yl)acetamide], with 200 to 5000 nM.
Turning to `COc1ccccc1CC(=O)Nc1cc(S(N)(=O)=O)c2cn(C(F)F)nc2c1` [Compound 115, N-(2-(difluoromethyl)-4-sulfamoyl-2H-indazol-6-yl)-2-(2-methoxyphenyl)acetamide], the IC50 is 200 to 5000 nM.
The same measure, in the same setting: then `COc1ccc(Cn2cc3c(S(C)(=N)=O)cc(NC(=O)Cc4ccccc4Cl)cc3n2)cc1` (stereo not drawn) [Compound 137, 2-(2-chlorophenyl)-N-(2-(4-methoxybenzyl)-4-(S-methylsulfonylimino)-2H-indazol-6-yl)acetamide], with 200 to 5000 nM; and `CN(C)c1cccc(Cn2ncc3c(S(N)(=O)=O)cc(NC(=O)Cc4ccccc4Cl)cc32)c1` [Compound 46, 2-(2-chlorophenyl)-N-(1-(3-(dimethylamino)benzyl)-4-sulfamoyl-1H-indazol-6-yl)acetamide], with 10 to 50 nM.
Same read-out and setting: to `NS(=O)(=O)c1cc(NC(=O)Cc2ccccc2Cl)cc2c1cnn2CC1CC1` [Compound 15-B, 2-(2-chlorophenyl)-N-(1-(cyclopropylmethyl)-4-sulfamoyl-1H-indazol-6-yl)acetamide] belongs 10 to 50 nM; to `NS(=O)(=O)c1cc(NC(=O)Cc2ccccc2Cl)cc2c1cnn2C(=O)c1ccc(F)cc1` [Compound 42-B, 2-(2-chlorophenyl)-N-(1-(4-fluorobenzoyl)-4-sulfamoyl-1H-indazol-6-yl)acetamide], 200 to 5000 nM.
On the same count and under the same terms, then `NS(=O)(=O)c1cc(NC(=O)Cc2ccccc2Cl)cc2nn(CCN3CCOCC3)cc12` [Compound 118, 2-(2-chlorophenyl)-N-(2-(2-morpholinoethyl)-4-sulfamoyl-2H-indazol-6-yl)acetamide], with 200 to 5000 nM; and `CC(C)NCCn1cc2c(S(N)(=O)=O)cc(NC(=O)Cc3ccccc3Cl)cc2n1` [Compound 29, 2-(2-chlorophenyl)-N-(2-(2-(isopropylamino)ethyl)-4-sulfamoyl-2H-indazol-6-yl)acetamide], with 10 to 50 nM.
Turning to `CN(C)c1cccc(Cn2cc3c(S(N)(=O)=O)cc(NC(=O)Cc4ccccc4Cl)cc3n2)c1` [Compound 38, 2-(2-chlorophenyl)-N-(2-(3-(dimethylamino)benzyl)-4-sulfamoyl-2H-indazol-6-yl)acetamide], the IC50 lay within 10 to 50 nM.
Same read-out and setting: to `CC(C)OCCn1ncc2c(S(N)(=O)=O)cc(NC(=O)Cc3ccccc3Cl)cc21` [Compound 26-B, 2-(2-chlorophenyl)-N-(1-(2-isopropoxyethyl)-4-sulfamoyl-1H-indazol-6-yl)acetamide] belongs 200 to 5000 nM; to `NS(=O)(=O)c1cc(NC(=O)Cc2ccccc2Cl)cc2nn(C(F)C3CC3)cc12` (stereo not drawn) [Compound 19, 2-(2-chlorophenyl)-N-(2-(cyclopropylfluoromethyl)-4-sulfamoyl-2H-indazol-6-yl)acetamide], 10 to 50 nM; to `CC(C)n1ncc2c(S(N)(=O)=O)cc(NC(=O)Cc3ccccc3Cl)cc21` [Compound 6-B, 2-(2-chlorophenyl)-N-(1-isopropyl-4-sulfamoyl-1H-indazol-6-yl)acetamide], 10 to 50 nM.
On the same count and under the same terms, to `CC1(N2Cc3cc(NC(=O)Cc4ccccc4Cl)cc(S(N)(=O)=O)c3C2)COC1` [Compound 130, 2-(2-chlorophenyl)-N-(2-(3-methyloxetan-3-yl)-7-sulfamoylisoindolin-5-yl)acetamide] belongs 200 to 5000 nM; to `COCCn1ncc2c(S(N)(=O)=O)cc(NC(=O)Cc3ccccc3Cl)cc21` [Compound 25A], 10 to 50 nM.
In the case of `NS(=O)(=O)c1cc(NC(=O)Cc2ccccc2Cl)cc2nn(CCO)cc12` [Compound 27-A, 2-(2-chlorophenyl)-N-(2-(2-hydroxyethyl)-4-sulfamoyl-2H-indazol-6-yl)acetamide], the IC50 was in the range of 200 to 5000 nM.
On the same count and under the same terms, to `CCn1cc2c(S(N)(=O)=O)cc(NC(=O)Cc3ccccc3Cl)cc2n1` [Compound 4-A, (4-sulfonamide-6-N-(2-chlorophenylacetyl)-2-ethyl)-indazole] belongs at most 10 nM; to `CC(C)C(=O)n1ncc2c(S(N)(=O)=O)cc(NC(=O)Cc3ccccc3Cl)cc21` [Compound 58, 2-(2-chlorophenyl)-N-(1-isobutyryl-4-sulfamoyl-1H-indazol-6-yl)acetamide], 200 to 5000 nM.
With `COc1ccc(Cn2cc3c(S(N)(=O)=O)cc(NC(=O)Cc4ccccc4Cl)cc3n2)c(Br)c1` [Compound 87], the IC50 was at most 10 nM.
Consider `CC(C)(C1CC1)n1cc2c(S(N)(=O)=O)cc(NC(=O)Cc3ccccc3Cl)cc2n1` [Compound 21, 2-(2-chlorophenyl)-N-(2-(2-cyclopropylpropan-2-yl)-4-sulfamoyl-2H-indazol-6-yl)acetamide], for which the half-inhibitory concentration (IC50) lay in the range of 10 to 50 nM.
With `COc1cnccc1Cn1cc2c(S(N)(=O)=O)cc(NC(=O)Cc3ccccc3Cl)cc2n1` [Compound 39, 2-(2-chlorophenyl)-N-(2-((3-methoxypyridin-4-yl)methyl)-4-sulfamoyl-2H-indazol-6-yl)acetamide], the IC50 is 10 to 50 nM.
For `NS(=O)(=O)c1cc(NC(=O)Cc2ccccc2Cl)cc2nc(-c3ccc(Cl)cc3)[nH]c12` [Compound 54, 2-(2-chlorophenyl)-N-(2-(4-chlorophenyl)-7-sulfamoyl-1H-benzo[d]imidazol-5-yl)acetamide], the IC50 lay within 200 to 5000 nM.
On the same count and under the same terms, to `NS(=O)(=O)c1cc(NC(=O)Cc2ccccc2Cl)cc2nn(CC3CCC(O)CC3)cc12` (stereo not drawn) [Compound 108] belongs 50 to 200 nM.

The assay is the same for the next values; noted with them: HEK293 cells stably expressing hP2X4, FLIPR, numeric values, read-out: P2X4 IC50.
`N#Cc1nc2c(S(N)(=O)=O)cc(NC(=O)Cc3ccccc3Cl)cc2[nH]1` [Compound 51, 6-(2-chlorophenylacetamide)-2-nitrile-4-sulfonamide benzimidazole]: the IC50 came out at 934 nM.
